{"source": "paper PMC7226357", "about": "“Aspirin: A Suicide Inhibitor of Carbonic Anhydrase II” (Biomolecules, 2020)", "target": "T1, Carbonic anhydrase II (Homo sapiens, UniProt P00918)", "T1 construct": "gene CA2", "experiment": "colorimetric esterase assay at […] nm (substrate of the assay)", "assay_type": "biochemical", "data": [{"compound": "CC(=O)Oc1ccc([N+](=O)[O-])cc1", "note": "[pNPA, 4-nitrophenyl acetate]", "values": [{"measurement": "colorimetric esterase assay at 348 nm (substrate of the assay)", "result": "CAII cleaves the ester bond of 4-nitrophenyl acetate, generating 4-nitrophenol."}]}]}
